According to patent US10577366B2, “Crystalline forms of a compound that inhibits bromodomain” (Plexxikon Inc., priority 2017, dated 2020):
“Also recorded” adds a separate entry of the source. Each block holds one compound with its values, some of them ahead of it.

Legend:
Type in all cases: physicochemical
[1] = Dynamic vapor sorption (DVS) isotherm, solid form stability as a function of humidity; conditions: for Water uptake: DVS at 25° C., up to 80% RH, solids pre-dried at 0% RH; for Form change after DVS test according to XRPD: after DVS at 25° C., 0% RH to 95% RH
Procedure: DVS was measured via a SMS (Surface Measurement Systems) DVS Intrinsic. The relative humidity at 25° C. were calibrated against deliquescence point of LiCl, Mg(NO3)2 and KCl.
DVS isotherm plot was collected at 25° C. to investigate the solid form stability as a function of humidity for Form A. Solids were pre-dried at 0% RH to remove surface solvent or water before DVS.
DVS isotherm plot was collected at 25° C. to investigate the solid form stability as a function of humidity for Form C. Solids were pre-dried at 0% RH to remove surface solvent or water before DVS. Water uptake of 0.6% was observed up to 80% RH (FIG. 9).

[2] = Solid form conversion on heating (XRPD / DSC)
Procedure: For XRPD analyses provided herein, a PANalytical Empyrean X-ray powder diffract meter was used, and the XRPD parameters used are summarized in Table 1.
DSC was performed using a TA Q200/Q2000 DSC from TA Instruments. TGA data were collected using a TA Q500/Q5000 TGA from TA Instruments. […]
Compound I Form C was prepared via anti-solvent addition in acetone/n-heptane at RT. […] (peak temperature) followed by two endotherms at 232.8° C. and 265.7° C. (onset temperature). […] It is also contemplated that Form C may be an anhydrate based on the characterization results. […]

[3] = Slurry turnover between forms in ACN at various temperatures; conditions: for Solid form after slurry turnover (XRPD): 1:1 mass mixture with Form A in ACN
Procedure: The conversion relationship between anhydrous Compound I Form A and Compound I Form C was investigated via slurry turnover at various temperatures (RT (25±3° C.) or 50° C.) as follows.
(§1) About 5 mg of Compound I Form A was added to 1.0 mL of ACN, and the suspension was stirred at 50° C. for 2 hours to reach equilibrium. The suspension was filtered into a vial, which included 5 mg of Compound I Form A and Compound I Form C (mass ratio of 1:1). The mixture was stirred at a desired temperature for 4 days, and the solids were then analyzed by XRPD and DSC.
The conversion relationship between anhydrate Compound I Form A and Compound I Form E was investigated via slurry turnover at various temperatures (RT (25±3° C.) or 50° C.) and water activities as follows.
as §1, with “For various temperatures: About” for “About”, “included 2” for “included 5”, “Form E” for “Form C”, “by XRPD.” for “by XRPD and DSC.”

[4] = Slurry turnover between Form A and E at various water activities; conditions: 21 days, XRPD
Procedure: For various water activities: About 10 mg of Compound I Form A was added to 1.0 mL EtOH/H2O with different aw (Table 12), and the suspension was stirred at RT for 1 hour to reach equilibrium. The suspension was filtered into a vial, which included 2 mg of Compound I Form A and Compound I Form E (mass ratio of 1:1). The mixture was stirred at the desired aw for 21 days, and the solids were then analyzed by XRPD.

[5] = stirred 4 days at RT (25±3° C.)

Compound: Cc1noc(C)c1-c1cnc2c(-c3ccc(C(=O)O)cc3)cn(C(C)(c3ccccn3)c3ccccn3)c2c1 [Form A, 4-(1-(1,1-di(pyridin-2-yl)ethyl)-6-(3,5-dimethylisoxazol-4-yl)-1H-pyrrolo[3,2-b]pyridin-3-yl)benzoic acid]
Water uptake [1]: 0.5%
Form change after DVS test according to XRPD [1]: No form change
Hygroscopicity ([1]; judged from DVS water uptake up to 80% RH at 25° C.): slightly hygroscopic
Relative stability of Form A versus Form C ([2]; based on the Burger-Ramberger Rules, before melting): monotropically more stable than Form C
Stability relationship between Form A and Form C ([3]; from slurry turnover at RT and 50° C. and DSC, monotropic): more stable

Compound: Cc1noc(C)c1-c1cnc2c(-c3ccc(C(=O)O)cc3)cn(C(C)(c3ccccn3)c3ccccn3)c2c1 [Form B, 4-(1-(1,1-di(pyridin-2-yl)ethyl)-6-(3,5-dimethylisoxazol-4-yl)-1H-pyrrolo[3,2-b]pyridin-3-yl)benzoic acid]
Solid form after heating (XRPD) ([2]; after heating to 110° C.): converted to Form A

Continued, in another order:

Water uptake [1]: 0.6%
Form change after DVS test according to XRPD [1]: Phase transition of Form C to Form A
Solid form after slurry turnover (XRPD) ([3]; stirred 4 days at 50° C.): converted to Form A
Solid form after slurry turnover (XRPD) [3, 5]: converted to Form A
Compound: Cc1noc(C)c1-c1cnc2c(-c3ccc(C(=O)O)cc3)cn(C(C)(c3ccccn3)c3ccccn3)c2c1 [Form C, 4-(1-(1,1-di(pyridin-2-yl)ethyl)-6-(3,5-dimethylisoxazol-4-yl)-1H-pyrrolo[3,2-b]pyridin-3-yl)benzoic acid]
Solid form after heating (XRPD/DSC) ([2]; after heating above the exothermic peak (174.5° C., peak temperature)): completely converted to Form A; also recorded: convert to Form A

Solid form after heating (XRPD) ([2]; after heating to 145° C. and cooling to ambient conditions): converted to Form C
Compound: Cc1noc(C)c1-c1cnc2c(-c3ccc(C(=O)O)cc3)cn(C(C)(c3ccccn3)c3ccccn3)c2c1 [Form D, 4-(1-(1,1-di(pyridin-2-yl)ethyl)-6-(3,5-dimethylisoxazol-4-yl)-1H-pyrrolo[3,2-b]pyridin-3-yl)benzoic acid]

Solid form after heating (XRPD) ([2]; after heating to 150° C.): converted to Form A
Solid form after slurry turnover (XRPD) ([3]; stirred 4 days at 50° C.): converted to Form A
Solid form after slurry turnover (XRPD) [3, 5]: converted to Form A
Final Form ([4]; Aw 0.298 (EtOH/H2O 952:48 v/v)): converted to Form A
Final Form ([4]; Aw 0.605 (EtOH/H2O 855:145 v/v)): converted to Form A
Final Form ([4]; Aw 0.900 (EtOH/H2O 450:550 v/v)): converted to Form A
Compound: Cc1noc(C)c1-c1cnc2c(-c3ccc(C(=O)O)cc3)cn(C(C)(c3ccccn3)c3ccccn3)c2c1 [Form E, 4-(1-(1,1-di(pyridin-2-yl)ethyl)-6-(3,5-dimethylisoxazol-4-yl)-1H-pyrrolo[3,2-b]pyridin-3-yl)benzoic acid]
